Among the data in PubChem BioAssay AID1259407 (Chemical Carcinogenesis Research Information System (CCRIS), 2018) are mutagenic call values, retold here.

SMILES strings stand for the structures. Activity calls are given as the source filed them. The rule behind the calls is not given here.

For this series, the system named is CCRIS mutagenicity, Ames/micronucleus/aberration tests. The experiment in a line: CCRIS mutagenicity studies.
The mark [1] stands for this setting: Test System: AMES SALMONELLA TYPHIMURIUM, Strain/Indicator: TA100, Metabolic Activation: NONE, Method: PREINCUBATION
Setting [2] is: Test System: AMES SALMONELLA TYPHIMURIUM, Strain/Indicator: TA100, Metabolic Activation: NONE, Method: STANDARD PLATE.
Setting [3] is: Test System: AMES SALMONELLA TYPHIMURIUM, Strain/Indicator: TA98, Metabolic Activation: NONE, Method: PREINCUBATION
The mark [4] stands for this setting: Test System: AMES SALMONELLA TYPHIMURIUM, Strain/Indicator: TA98, Metabolic Activation: RAT, LIVER, S-9, KANECHLOR 500, Method: PREINCUBATION
Where [5] appears, read: Test System: AMES SALMONELLA TYPHIMURIUM, Strain/Indicator: TA100, Metabolic Activation: RAT, LIVER, S-9, KANECHLOR 500, Method: PREINCUBATION
[6] abbreviates: Test System: AMES SALMONELLA TYPHIMURIUM, Strain/Indicator: TA1535, Metabolic Activation: NONE, Method: STANDARD PLATE.
The mark [7] stands for this setting: Test System: AMES SALMONELLA TYPHIMURIUM, Strain/Indicator: TA1538, Metabolic Activation: NONE, Method: STANDARD PLATE.
[8] abbreviates: Test System: AMES SALMONELLA TYPHIMURIUM, Strain/Indicator: TA1538, Metabolic Activation: RAT, LIVER, S-9, AROCLOR 1254, Method: STANDARD PLATE.

With `CC(=O)Oc1ccc2c(c1)C1(C)OOC1(C)O2` (configuration not stated), under setting [1], the mutagenic call was “active; positive”.
For the compound `O=C1C(Cl)=C(Cl)C(=O)C1(Cl)Cl`, the mutagenic call under setting [2] was “inactive; negative”.
With `[Ag]`, the mutagenic call (End Point: In vivo micronucleus, Test System: Bone marrow polychromatic erythrocytes, Species: Rat, Strain/Sex: Sprague-Dawley/Male and Female, Route: Oral) is “inactive; negative”.
As to `O=[N+]([O-])c1ccccc1S(=O)(=O)O`, the mutagenic call runs as follows: under setting [3], “inactive; negative”; under setting [4], “inactive; negative”; under setting [1], “inactive; negative”; under setting [5], “inactive; negative”.
Consider `Nc1nc(=O)n([C@@H]2O[C@H](CO)[C@@H](O)[C@H]2O)cc1O`, for which, under setting [1], the mutagenic call was “inactive; negative”.
Take `Nc1c([N+](=O)[O-])cccc1[N+](=O)[O-]`: the mutagenic call reads like this: under setting [3], “active; positive”; under setting [4], “active; positive”; under setting [1], “active; positive”; under setting [5], “active; positive”.
For the compound `O=C(COc1cc(Cl)c(Cl)cc1Cl)N[C@@H](Cc1c[nH]c2ccccc12)C(=O)O`, the mutagenic call (Test System: AMES SALMONELLA TYPHIMURIUM, Strain/Indicator: TA97, Metabolic Activation: NONE, Method: STANDARD PLATE) is “inactive; negative”; the mutagenic call (Test System: AMES SALMONELLA TYPHIMURIUM, Strain/Indicator: TA97, Metabolic Activation: RAT, LIVER, S-9, AROCLOR 1254, Method: STANDARD PLATE) is “inactive; negative”; the mutagenic call (Test System: AMES SALMONELLA TYPHIMURIUM, Strain/Indicator: TA98, Metabolic Activation: NONE, Method: STANDARD PLATE) is “inactive; negative”; the mutagenic call (Test System: AMES SALMONELLA TYPHIMURIUM, Strain/Indicator: TA98, Metabolic Activation: RAT, LIVER, S-9, AROCLOR 1254, Method: STANDARD PLATE) was “inactive; negative”; the mutagenic call under setting [2] is “inactive; negative”; the mutagenic call (Test System: AMES SALMONELLA TYPHIMURIUM, Strain/Indicator: TA100, Metabolic Activation: RAT, LIVER, S-9, AROCLOR 1254, Method: STANDARD PLATE) was “inactive; negative”. The mutagenic call is, setting by setting: under setting [6], “inactive; negative”; (Test System: AMES SALMONELLA TYPHIMURIUM, Strain/Indicator: TA1535, Metabolic Activation: RAT, LIVER, S-9, AROCLOR 1254, Method: STANDARD PLATE) “inactive; negative”; under setting [7], “inactive; negative”; under setting [8], “inactive; negative”.
`[N-]=[N+]=CC(=O)NCC(=O)NN`: the mutagenic call was “active; positive” under setting [6] and “active; positive” (Test System: UDS RODENT CELLS, Strain/Indicator: THY INCORP (NON-S-PHASE), Metabolic Activation: NONE, Method: AUTORADIOGRAPHY).
On to `CC(=O)Nc1ccccc1`, for which the mutagenic call is “inactive; negative” (Test System: AMES SALMONELLA TYPHIMURIUM, Strain/Indicator: TA97, Metabolic Activation: HAMSTER, LIVER, S-9, AROCLOR 1254 (10 OR 30%), Method: PREINCUBATION); “inactive; negative” (Test System: AMES SALMONELLA TYPHIMURIUM, Strain/Indicator: TA97, Metabolic Activation: NONE, Method: PREINCUBATION); “inactive; negative” (Test System: AMES SALMONELLA TYPHIMURIUM, Strain/Indicator: TA97, Metabolic Activation: RAT, LIVER, S-9, AROCLOR 1254 (10 OR 30%), Method: PREINCUBATION); “inactive; negative” (Test System: AMES SALMONELLA TYPHIMURIUM, Strain/Indicator: TA98, Metabolic Activation: GUINEA PIG, LIVER, S-9, PCB, Method: PREINCUBATION); “inactive; negative” (Test System: AMES SALMONELLA TYPHIMURIUM, Strain/Indicator: TA98, Metabolic Activation: HAMSTER, LIVER, S-9, AROCLOR 1254 (10 OR 30%), Method: PREINCUBATION); “inactive; negative” (Test System: AMES SALMONELLA TYPHIMURIUM, Strain/Indicator: TA98, Metabolic Activation: HAMSTER, LIVER, S-9, PCB, Method: PREINCUBATION). Also, the mutagenic call by setting is: (Test System: AMES SALMONELLA TYPHIMURIUM, Strain/Indicator: TA98, Metabolic Activation: MOUSE, LIVER, S-9, PCB, Method: PREINCUBATION) “inactive; negative”; under setting [3], “inactive; negative”; (Test System: AMES SALMONELLA TYPHIMURIUM, Strain/Indicator: TA98, Metabolic Activation: RAT, LIVER, S-9, AROCLOR 1254 (10 OR 30%), Method: PREINCUBATION) “inactive; negative”; (Test System: AMES SALMONELLA TYPHIMURIUM, Strain/Indicator: TA98, Metabolic Activation: RAT, LIVER, S-9, PCB, Method: PREINCUBATION) “inactive; negative”; (Test System: AMES SALMONELLA TYPHIMURIUM, Strain/Indicator: TA100, Metabolic Activation: GUINEA PIG, LIVER, S-9, PCB, Method: PREINCUBATION) “inactive; negative”; (Test System: AMES SALMONELLA TYPHIMURIUM, Strain/Indicator: TA100, Metabolic Activation: HAMSTER, LIVER, S-9, AROCLOR 1254 (10 OR 30%), Method: PREINCUBATION) “inactive; negative”. In addition, the mutagenic call by setting is: (Test System: AMES SALMONELLA TYPHIMURIUM, Strain/Indicator: TA100, Metabolic Activation: HAMSTER, LIVER, S-9, PCB, Method: PREINCUBATION) “inactive; negative”; (Test System: AMES SALMONELLA TYPHIMURIUM, Strain/Indicator: TA100, Metabolic Activation: MOUSE, LIVER, S-9, PCB, Method: PREINCUBATION) “inactive; negative”; under setting [1], “inactive; negative”; (Test System: AMES SALMONELLA TYPHIMURIUM, Strain/Indicator: TA100, Metabolic Activation: RAT, LIVER, S-9, AROCLOR 1254 (10 OR 30%), Method: PREINCUBATION) “inactive; negative”; (Test System: AMES SALMONELLA TYPHIMURIUM, Strain/Indicator: TA100, Metabolic Activation: RAT, LIVER, S-9, PCB, Method: PREINCUBATION) “inactive; negative”; (Test System: AMES SALMONELLA TYPHIMURIUM, Strain/Indicator: TA1535, Metabolic Activation: HAMSTER, LIVER, S-9, AROCLOR 1254 (10 OR 30%), Method: PREINCUBATION) “inactive; negative”. For the same compound, the mutagenic call is “inactive; negative” (Test System: AMES SALMONELLA TYPHIMURIUM, Strain/Indicator: TA1535, Metabolic Activation: NONE, Method: PREINCUBATION) and “inactive; negative” (Test System: AMES SALMONELLA TYPHIMURIUM, Strain/Indicator: TA1535, Metabolic Activation: RAT, LIVER, S-9, AROCLOR 1254 (10 OR 30%), Method: PREINCUBATION).
With `CCC(=O)N(O)c1ccc(-c2ccccc2)cc1`, the mutagenic call was “inactive; negative” under setting [3]; “inactive; negative” (Test System: AMES SALMONELLA TYPHIMURIUM, Strain/Indicator: TA98, Metabolic Activation: RAT, LIVER, CYTOSOL, Method: PREINCUBATION); “active; positive” (Test System: AMES SALMONELLA TYPHIMURIUM, Strain/Indicator: TA98, Metabolic Activation: RAT, LIVER, MICROSOMES, Method: PREINCUBATION).
In the case of `C1CSCN1`, under setting [1], the mutagenic call was “active; positive”.
In the case of `O=C(CCCl)N=c1sn(C(=O)CCCl)c2ccc(Cl)cc12`, where the note is “Test System: AMES SALMONELLA TYPHIMURIUM, Strain/Indicator: TA100, Metabolic Activation: S-9, Method: STANDARD PLATE”, the mutagenic call was “inactive; negative”.
For the compound `CCN(CC)c1ccc(-c2ccc(-c3ccc(-c4ccc(N(CC)CC)cc4)cc3)cc2)cc1`, the mutagenic call under setting [7] is “inactive; negative” and the mutagenic call under setting [8] is “inactive; negative”.
`Cc1cn(/C=C/C=O)c(=O)[nH]c1=O`: where the note is “Test System: AMES SALMONELLA TYPHIMURIUM, Strain/Indicator: HISD3052, Metabolic Activation: NONE, Method: STANDARD PLATE”, the mutagenic call is “active; positive”.
